These results are taken from ChEMBL document CHEMBL5523770 (J Med Chem, 2024).

The target in series [1] is Nuclear receptor subfamily 4 group A member 2 (Homo sapiens, UniProt P43354). Briefly: Inverse agonist activity at Gal4-fused human […] Nurr1 LBD transfected in HEK293T cells assessed as suppression of Nurr1 activation incubated for 16 hrs by firefly/renilla based Dual-Glo luciferase assay. The series is classed as cell-based.
The target in series [2] is T1, Nuclear receptor subfamily 1 group I member 2 (Homo sapiens, UniProt O75469).
T1 sequence (O75469 whole entry): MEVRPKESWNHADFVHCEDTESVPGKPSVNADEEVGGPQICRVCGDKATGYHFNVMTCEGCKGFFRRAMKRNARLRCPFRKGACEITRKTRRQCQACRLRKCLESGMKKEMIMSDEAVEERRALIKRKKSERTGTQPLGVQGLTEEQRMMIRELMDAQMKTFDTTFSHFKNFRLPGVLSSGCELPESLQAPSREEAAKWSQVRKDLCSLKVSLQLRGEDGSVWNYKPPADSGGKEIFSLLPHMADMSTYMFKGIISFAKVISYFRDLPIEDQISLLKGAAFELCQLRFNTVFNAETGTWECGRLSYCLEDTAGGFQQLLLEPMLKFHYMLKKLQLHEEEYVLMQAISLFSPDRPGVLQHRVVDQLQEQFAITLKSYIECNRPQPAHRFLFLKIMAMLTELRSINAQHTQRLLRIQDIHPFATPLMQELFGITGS
Briefly: Inverse agonist activity at human PXR transfected in HEK293T cells incubated for 16 hrs by firefly/renilla based Dual-Glo luciferase assay. The series is classed as cell-based.

Series [3] addresses Nuclear receptor subfamily 4 group A member 3 (Homo sapiens, UniProt Q92570). Briefly: Inverse agonist activity at human NOR-1 (393 to 626 residues) transfected in HEK293T cells incubated for 16 hrs by firefly/renilla based Dual-Glo luciferase assay. The series is classed as cell-based.
Series [4] concerns the target T2, Nuclear receptor subfamily 1 group I member 3 (Homo sapiens, UniProt Q14994).
T2 sequence (Q14994 whole entry): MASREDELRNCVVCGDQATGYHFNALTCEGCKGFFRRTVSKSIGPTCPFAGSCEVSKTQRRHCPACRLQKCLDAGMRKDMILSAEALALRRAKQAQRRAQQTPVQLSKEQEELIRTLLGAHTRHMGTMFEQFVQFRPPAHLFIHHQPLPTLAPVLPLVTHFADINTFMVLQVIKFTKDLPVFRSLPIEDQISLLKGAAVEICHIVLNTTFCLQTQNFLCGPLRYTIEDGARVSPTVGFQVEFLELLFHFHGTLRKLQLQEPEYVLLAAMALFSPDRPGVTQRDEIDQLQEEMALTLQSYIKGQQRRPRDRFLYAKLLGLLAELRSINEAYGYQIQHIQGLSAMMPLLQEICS
Briefly: Inverse agonist activity at human CAR transfected in HEK293T cells incubated for 16 hrs by firefly/renilla based Dual-Glo luciferase assay. The series is classed as cell-based.

A short description of the next series: in vitro. The following applies: male, Sprague-Dawley, rat, liver microsomes. In general terms: Liver microsomes are vesicles of endoplasmic reticulum, rich in cytochrome P450 enzymes.

Nuclear receptor subfamily 4 group A member 3, sequence (Q92570 whole entry, the tested form may be a part): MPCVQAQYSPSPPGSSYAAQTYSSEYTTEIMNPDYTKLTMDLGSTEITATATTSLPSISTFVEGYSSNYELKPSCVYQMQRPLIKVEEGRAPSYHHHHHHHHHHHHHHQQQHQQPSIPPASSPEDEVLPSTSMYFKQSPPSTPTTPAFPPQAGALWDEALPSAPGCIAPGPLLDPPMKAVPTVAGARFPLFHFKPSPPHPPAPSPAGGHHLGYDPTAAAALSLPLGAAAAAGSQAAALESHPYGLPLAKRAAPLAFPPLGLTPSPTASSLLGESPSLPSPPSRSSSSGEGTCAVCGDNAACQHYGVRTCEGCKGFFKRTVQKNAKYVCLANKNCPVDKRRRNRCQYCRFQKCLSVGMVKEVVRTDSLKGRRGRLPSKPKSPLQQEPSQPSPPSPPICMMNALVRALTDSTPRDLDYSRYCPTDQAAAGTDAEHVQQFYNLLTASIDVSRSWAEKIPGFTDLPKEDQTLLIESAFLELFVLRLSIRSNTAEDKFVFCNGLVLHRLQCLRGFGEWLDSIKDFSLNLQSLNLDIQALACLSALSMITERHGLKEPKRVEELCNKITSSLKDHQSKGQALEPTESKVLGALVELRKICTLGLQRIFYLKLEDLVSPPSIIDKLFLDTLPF
Nuclear receptor subfamily 4 group A member 2, sequence (P43354 whole entry, the tested form may be a part): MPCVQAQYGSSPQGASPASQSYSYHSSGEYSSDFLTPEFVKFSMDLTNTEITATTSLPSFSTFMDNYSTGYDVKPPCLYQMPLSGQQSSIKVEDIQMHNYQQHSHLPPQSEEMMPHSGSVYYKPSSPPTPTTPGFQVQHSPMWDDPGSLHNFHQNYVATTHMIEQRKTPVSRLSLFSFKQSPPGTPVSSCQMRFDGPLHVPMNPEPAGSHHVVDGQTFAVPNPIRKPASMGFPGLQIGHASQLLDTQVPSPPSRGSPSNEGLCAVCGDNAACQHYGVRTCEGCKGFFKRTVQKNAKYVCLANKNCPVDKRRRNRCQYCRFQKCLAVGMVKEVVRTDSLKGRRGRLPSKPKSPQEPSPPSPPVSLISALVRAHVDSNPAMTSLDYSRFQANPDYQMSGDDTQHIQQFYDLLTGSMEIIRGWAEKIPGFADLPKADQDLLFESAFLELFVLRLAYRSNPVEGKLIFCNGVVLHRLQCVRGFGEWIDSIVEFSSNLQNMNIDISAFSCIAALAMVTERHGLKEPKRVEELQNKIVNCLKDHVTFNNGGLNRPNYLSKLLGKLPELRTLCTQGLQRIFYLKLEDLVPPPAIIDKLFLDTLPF

By IC50 is commonly meant the concentration needed to halve the response being measured. For `Cc1cccc(-c2oc(CCC(=O)O)nc2-c2ccccc2)c1`, the IC50 in series [1] is more than 50 µM.
Consider `O=C(O)/C=C/c1nc(-c2ccccc2)c(-c2ccccc2)o1`, for which the result in series [2] was Active. For the same molecule, in series [3], the IC50 amounted to 3.8 µM.
As to `CN(C)C(=O)CCc1nc(-c2ccccc2)c(-c2ccccc2Cl)o1`, the outcome in series [2] and in series [4] was Active. Moreover, the concentration for half-maximal inhibition (IC50) in series [3] came to 29 µM.
In general, half-life refers to the time in which the quantity being followed falls by half. On to `CN(C)C(=O)/C=C/c1nc(-c2ccccc2)c(-c2ccccc2)o1`, for which the half-life at 1 h, 10 µM in “in vitro” is 30 min.
On the same count and under the same terms, the same measure for `CC(C)NCC(O)COc1cccc2ccccc12` (stereo not drawn) [PROPRANOLOL]: 64 min.
